Results on one compound are retold here after ChEMBL document CHEMBL4043108, “Identification of galiellalactone-based novel STAT3-selective inhibitors with cytotoxic activities against triple-negative breast cancer cell lines” (Bioorg Med Chem, 2017).

What is called IC50 is the concentration that gives 50% inhibition. The low end stands for greater potency in that assay, the high end for weaker potency in that assay.

Activity calls are given as the source filed them. The calls are words filed in the database; no cut-off is given here.

For data set [1], the target named is Signal transducer and activator of transcription 3 (Homo sapiens) (UniProt P40763). Put plainly: Inhibition of STAT3 Tyr705 phosphorylation in human MDA-MB-468 cells at 5 and 10 uM incubated for 4 hrs by Western blot. In kind it is cell-based. A general note: In western blotting, separated proteins are transferred to a membrane and probed.
The subject of data set [2] is MDA-MB-468. The data set can be described thus: Cytotoxic activity against human MDA-MB-468 cells incubated for 24 hrs by MTT assay. The class given is functional, cell-based. The note with it: MDA-MB-468, 24 h. For orientation: Formazan colour is commonly taken as a measure of viable cells.
A further data set deals with MDA-MB-231. Put plainly: Cytotoxic activity against human MDA-MB-231 cells incubated for 24 hrs by MTT assay. Conditions: MDA-MB-231, 24 h. The class given is functional, cell-based.
In a further data set the test system is BT-549. The data set can be described thus: Cytotoxic activity against human BT549 cells incubated for 24 hrs by MTT assay. The class given is functional, cell-based. The note with it: BT-549, 24 h.
The target in data set [3] is Signal transducer and activator of transcription 3 (Homo sapiens) (UniProt P40763). The data set can be described thus: Inhibition of STAT3 transcriptional activity in human MDA-MB-468 cells at 5 uM incubated for 24 hrs by STAT3-dependent luciferase reporter assay. The class given is cell-based. In general terms: A reporter such as luciferase makes a cellular process visible.

Data set [4] has the same target. Put plainly: Inhibition of STAT3 Ser727 phosphorylation in human MDA-MB-468 cells at 5 and 10 uM incubated for 4 hrs by Western blot. The class given is cell-based.
Data set [5] concerns the target T1, Signal transducer and activator of transcription 1-alpha/beta (Homo sapiens) (UniProt P42224).
T1 sequence (whole entry): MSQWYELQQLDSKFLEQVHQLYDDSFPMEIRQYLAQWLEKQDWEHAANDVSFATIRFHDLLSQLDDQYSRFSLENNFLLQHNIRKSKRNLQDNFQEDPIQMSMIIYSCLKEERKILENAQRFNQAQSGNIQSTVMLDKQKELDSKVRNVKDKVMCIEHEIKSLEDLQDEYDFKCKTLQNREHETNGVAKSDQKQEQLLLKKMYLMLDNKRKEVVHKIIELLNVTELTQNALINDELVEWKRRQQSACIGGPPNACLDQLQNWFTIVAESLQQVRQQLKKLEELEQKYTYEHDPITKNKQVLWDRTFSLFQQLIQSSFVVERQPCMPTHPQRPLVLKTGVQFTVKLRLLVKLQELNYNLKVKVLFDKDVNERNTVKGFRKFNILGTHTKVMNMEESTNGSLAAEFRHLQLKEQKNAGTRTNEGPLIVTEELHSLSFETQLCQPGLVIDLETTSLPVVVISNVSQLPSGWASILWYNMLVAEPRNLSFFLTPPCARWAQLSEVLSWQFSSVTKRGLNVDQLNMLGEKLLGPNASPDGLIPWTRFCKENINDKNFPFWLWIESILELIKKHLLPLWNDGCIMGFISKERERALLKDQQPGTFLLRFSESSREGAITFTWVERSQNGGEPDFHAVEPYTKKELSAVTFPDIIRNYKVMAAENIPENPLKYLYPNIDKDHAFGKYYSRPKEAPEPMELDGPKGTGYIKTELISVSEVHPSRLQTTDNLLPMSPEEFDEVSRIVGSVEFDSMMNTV
The data set can be described thus: Inhibition of STAT1 Tyr701 phosphorylation in human MDA-MB-468 cells at 5 and 10 uM incubated for 4 hrs by Western blot. In kind it is cell-based.

The target of data set [6] is T2, Signal transducer and activator of transcription 5A (Homo sapiens) (UniProt P42229).
T2 sequence (whole entry): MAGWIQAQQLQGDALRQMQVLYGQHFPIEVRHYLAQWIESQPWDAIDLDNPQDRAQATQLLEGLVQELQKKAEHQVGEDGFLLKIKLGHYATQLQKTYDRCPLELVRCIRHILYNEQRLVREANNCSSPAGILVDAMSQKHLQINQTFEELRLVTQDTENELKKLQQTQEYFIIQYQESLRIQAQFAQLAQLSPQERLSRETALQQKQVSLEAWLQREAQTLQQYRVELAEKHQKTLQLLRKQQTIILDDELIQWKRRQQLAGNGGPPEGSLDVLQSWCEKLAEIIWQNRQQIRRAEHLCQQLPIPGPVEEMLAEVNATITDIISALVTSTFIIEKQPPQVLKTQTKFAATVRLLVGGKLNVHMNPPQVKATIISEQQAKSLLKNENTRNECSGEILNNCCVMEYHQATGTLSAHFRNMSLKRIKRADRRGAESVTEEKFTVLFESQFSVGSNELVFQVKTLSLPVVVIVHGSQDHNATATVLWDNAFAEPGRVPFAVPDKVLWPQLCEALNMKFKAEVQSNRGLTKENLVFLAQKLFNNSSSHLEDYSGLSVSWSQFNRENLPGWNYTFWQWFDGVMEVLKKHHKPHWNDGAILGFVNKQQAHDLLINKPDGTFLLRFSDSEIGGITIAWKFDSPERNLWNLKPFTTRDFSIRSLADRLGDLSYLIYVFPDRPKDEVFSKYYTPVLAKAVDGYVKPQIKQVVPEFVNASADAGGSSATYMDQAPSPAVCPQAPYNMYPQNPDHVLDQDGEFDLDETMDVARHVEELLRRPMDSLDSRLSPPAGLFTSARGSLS
The data set can be described thus: Inhibition of STAT5 Tyr694 phosphorylation in human MDA-MB-468 cells at 5 and 10 uM incubated for 4 hrs by Western blot. The class given is cell-based.

Data set [7] has as its system MDA-MB-468. The data set can be described thus: Effect on total STAT3 protein level in human MDA-MB-468 cells at 5 and 10 uM incubated for 4 hrs by Western blot. The class given is cell-based. Conditions: mda-mb-468, 4 h.
Data set [8] can be described thus: Toxicity in human MDA-MB-468 cells assessed as cell viability at 5 uM incubated for 24 hrs by MTT assay (reference value: 100%). The class given is cell-based. The note with it: read-out: Activity.
A short description of data set [9]: Toxicity in human MDA-MB-468 cells assessed as cell viability at 10 uM incubated for 24 hrs by MTT assay (reference value: 100%). Conditions: read-out: Activity. The class given is cell-based.

Signal transducer and activator of transcription 3 (Homo sapiens), sequence (P40763 whole entry): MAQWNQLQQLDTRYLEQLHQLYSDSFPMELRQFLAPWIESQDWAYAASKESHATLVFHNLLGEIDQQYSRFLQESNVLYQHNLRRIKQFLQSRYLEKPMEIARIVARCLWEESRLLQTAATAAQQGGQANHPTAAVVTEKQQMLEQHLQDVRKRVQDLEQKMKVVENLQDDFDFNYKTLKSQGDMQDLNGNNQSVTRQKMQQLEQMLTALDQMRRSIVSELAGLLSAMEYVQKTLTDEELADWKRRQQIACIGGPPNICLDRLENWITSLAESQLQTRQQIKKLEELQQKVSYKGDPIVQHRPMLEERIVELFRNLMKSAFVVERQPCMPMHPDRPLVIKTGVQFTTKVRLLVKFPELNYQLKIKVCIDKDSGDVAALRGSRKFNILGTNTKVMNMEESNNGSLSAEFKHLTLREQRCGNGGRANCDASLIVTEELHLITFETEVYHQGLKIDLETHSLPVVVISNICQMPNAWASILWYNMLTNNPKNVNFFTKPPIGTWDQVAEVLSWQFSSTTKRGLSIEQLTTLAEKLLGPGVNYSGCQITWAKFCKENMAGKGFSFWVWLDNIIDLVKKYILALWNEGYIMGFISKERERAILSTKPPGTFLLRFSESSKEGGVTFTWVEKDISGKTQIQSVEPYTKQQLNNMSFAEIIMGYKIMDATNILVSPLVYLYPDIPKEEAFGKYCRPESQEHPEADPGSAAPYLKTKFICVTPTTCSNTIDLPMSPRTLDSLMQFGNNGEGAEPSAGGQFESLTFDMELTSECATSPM

As for `C[C@@H]1C=C2C(=O)O[C@@H]3CC[C@H](C1)[C@]23O`, the inhibition result in data set [1] was “Dose-dependent effect”. For the same compound, the IC50 in the data set on MDA-MB-468 [2] was determined as 17.5 µM; in the data set with MDA-MB-231, 16.9 µM; in the data set on BT-549, 12.7 µM. The inhibition result in data set [3] was “Active”. Moreover, the inhibition entry in data set [4], in data set [5] and in [6] was “inactive” in each case. Moreover, the Activity result in the data set on MDA-MB-468 [7] is “Non-Toxic”. The viability at 24 h, 5 µM in data set [8] was 97%. In data set [9], the viability at 24 h, 10 µM turned out to be 90%.
